# Assays:
# [1] = system: CD8+ TILs; assay: Flow cytometry of tumor-infiltrating CD8+ T cells from treated mice; type: in vivo
# Method: All analysis was performed using FlowJo version 11 software.
# [2] = Blood glucose and pancreatic islets in B16-bearing mice; type: in vivo
# Description: Hematoxylin and Eosin (H&E) stained slides were scanned in an Aperio AT2 whole slide scanner (Leica Biosystems Inc.) equipped with a 20×0.7NA objective lens Images were created at 0.5 micron per pixel resolution and imported into Definiens Tissue Studio software v4.7 (Definiens AG) for analysis. Islets were found using a semi-automated segmentation process. First an automatic segmentation was applied to the image to create contour lines around objects within the image. Objects that contained islets were classified as such and remaining objects were classified as non-islet tissue. Next, adjacent objects of the same classification were merged together to clean up the segmentation. Segmented images were analyzed to provide the total area of islets Immunofluorescence for mouse insulin in pancreas tissue sections was performed as we described (Sultan et al., 2017). Labeled samples were scanned with a Zeiss Imager Z2 Upright FL microscope with a 10× objective lens using the tile scan function. Images were created at a
# 0.65 micron per pixel resolution and imported into the Definiens Tissue Studio software v4.7 (Definiens AG) for islet detection and analysis. Islets were detected using a semi-automated segmentation process. First, an automatic segmentation was applied to the image to detect the tissue. Then, the software was trained to detect islet vs. non-islet tissue within the image. In order to remove false detected islets caused by background staining, detected islets larger than 150,000 square microns and less than 600 square microns were reclassified to non-islet tissue. Segmented images were then analyzed to provide the fluorescent intensity of islets and total tissue area.
smiles,measurement,setting,value
Cc1ccc2cc(-c3c(C)ccc(C(=O)c4c(-c5ccccc5)n(C)n(-c5ccccc5)c4=O)c3N)ccc2n1 [AMG-44],tumor-infiltrating CD8+ T cells expressing IFNγ,"[1]; B16-bearing mice, AMG-44 12 mg/kg",induced expansion
same,frequency of IFNγ-producing CD8+ T cells in tumors,"[1]; B16, GSK2606414 25 mg/kg or AMG-44 12 mg/kg, 17 days post-tumor injection",amplified the frequency of IFNγ-producing CD8^+ T cells in tumors
same,blood glucose levels,[2]; AMG-44 12 and 24 mg/kg,without alterations
same,insulin expression in the pancreatic islets,[2]; AMG-44 12 and 24 mg/kg,without alterations
same,size of the pancreatic islets,[2]; AMG-44 12 and 24 mg/kg,without alterations
same,glucose levels in the serum,"[2]; B16-bearing mice treated for a week, GSK2606414 25 mg/kg or AMG-44 12 mg/kg, day 17",failed to show alterations in glucose levels
